Laboratory results: ChEMBL document CHEMBL1139061, “Ac2-DPD, the bis-(O)-acetylated derivative of 4,5-dihydroxy-2,3-pentanedione (DPD) is a convenient stable precursor of bacterial quorum sensing autoinducer AI-2” (Bioorg Med Chem Lett, 2007)
Calls of active or inactive are those of the source. No cut-off for these calls is given here.

Key:
[1] = tested on: Vibrio harveyi; assay: Induction of bioluminescence in Vibrio harveyi after 4 hrs by luminescence reporter assay; details: read-out: IC50 (the source's name)
[2] = tested on: Salmonella typhimurium; assay: Induction of beta-galactosidase production in Salmonella enterica Typhimurium MET844 after 4 hrs by beta-Gal reporter gene assay; type: functional, organism-based; details: Salmonella enterica subsp. enterica serovar Typhimurium
[3] = tested on: Bacillus cereus; assay: Inhibition of biofilm formation in Bacillus cereus at 8 uM after 24 hrs by 96-well polyvinylchloride microtiter plate assay; type: functional, organism-based

| SMILES | EC50 [1] | Activity [2] | Activity [3] |
| --- | --- | --- | --- |
| CC(=O)OCC(OC(C)=O)C(=O)C(C)=O (stereo unspecified) | 2.4 µM |  |  |
| CC(=O)C(=O)C(O)CO (stereo unspecified) |  | Active |  |
| CC(=O)C(=O)[C@@H](O)CO |  |  | Active |
| CC(=O)OC[C@H](OC(C)=O)C(=O)C(C)=O | 2.1 µM | Active | Active |
